Consider 34 sequences from the supplement of paper PMC11208160.
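Note: IS621 bridge recombinase in Escherichia coli cells against a fixed T5 target plasmid.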

The data set is described as follows: recombinant UMI read abundance after kanamycin selection (control-corrected) (log10(CPM+1)); higher = more efficient recombination; extreme values may be limits of the assay; sequences stand for … in AGTGCAGAGAAAATCGGCCAGTTTTCTCTGCCTGCAGTCCGCATGCCGTGGGACCCCTTGGGTTCTAACCTGTTGCCTAGATTTATGCAGCGGACTGCCTTTCTCCCAAAGTGATAAACCGG…AGGTTGGTTTCACT; site = the 11-nt donor. The method in brief:
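Each donor and donor-binding-loop pair was tracked by a 12-nt UMI on a plasmid carrying a promoterless kanamycin gene. With a second plasmid supplying a fixed target and T7-inducible IS621 bridge recombinase, the pool was plated in Escherichia coli on IPTG (0.07 mM) plus kanamycin or unselected. Sequencing of recombinant UMIs across the donor–target junction gave counts expressed as log10(CPM+1) after replicate averaging and control-derived scaling.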
Take “CAAATCACATGGACCGGTTTTCCCGGTAATCCGTATTTGGG (site CAATTCACTCC)”: the “recombinant UMI read abundance (log10)” value was 0.0243.
With “CAACATTCATGGACCGGTTTTCCCGGTAATCCGTATTTGCA (site CAACATTCTTG)”, the “recombinant UMI read abundance (log10)” value stood at 2.5.
In the case of “CAACCCGCATGGACCGGTTTTCCCGGTAATCCGTATTTGTT (site CAACCCGCTAA)”, the “recombinant UMI read abundance (log10)” value is 1.49.
With “CAACTCACATGGACCGGTTTTCCCGGTAATCCGTATTTGGG (site CAAATCACTCC)”, the “recombinant UMI read abundance (log10)” value turned out to be 0.0187.
In the case of “CAACTCACATGGACCGGTTTTCCCGGTAATCCGTATTTGGG (site CAACTCACTCC)”, the “recombinant UMI read abundance (log10)” value stood at 0.0233.
As to “CAACTCACATGGACCGGTTTTCCCGGTAATCCGTATTTGGG (site CAAGTCACTCC)”, the “recombinant UMI read abundance (log10)” value came to 0.00719.
With “CAACTCACATGGACCGGTTTTCCCGGTAATCCGTATTTGGG (site CAATTCACTCC)” the figure was 0.013.
“CAACTGACATGGACCGGTTTTCCCGGTAATCCGTATTTGCT (site CAACTGACTAG)”: the “recombinant UMI read abundance (log10)” value came to 2.48.
On to “CAAGAGACATGGACCGGTTTTCCCGGTAATCCGTATTTGCG (site CAAGAGACTCG)”, for which the “recombinant UMI read abundance (log10)” value amounted to 3.11.
For the sequence “CAAGAGCCATGGACCGGTTTTCCCGGTAATCCGTATTTGGG (site CAAGAGCCTCC)”, the “recombinant UMI read abundance (log10)” value stood at 0.00368.
For “CAAGCAGCATGGACCGGTTTTCCCGGTAATCCGTATTTGAT (site CAAGCAGCTAA)” the value was 0.982; for “CAAGCAGCATGGACCGGTTTTCCCGGTAATCCGTATTTGAT (site CAAGCAGCTAC)”, 0.271.
As to “CAAGCAGCATGGACCGGTTTTCCCGGTAATCCGTATTTGAT (site CAAGCAGCTAG)”, the “recombinant UMI read abundance (log10)” value was 0.784.
For “CAAGCAGCATGGACCGGTTTTCCCGGTAATCCGTATTTGAT (site CAAGCAGCTAT)” the value was 2.44; for “CAAGCAGCATGGACCGGTTTTCCCGGTAATCCGTATTTGCG (site CAAGCAGCTAG)”, 1.9; for “CAAGCAGCATGGACCGGTTTTCCCGGTAATCCGTATTTGCG (site CAAGCAGCTCG)”, 1.81.
Consider “CAAGCAGCATGGACCGGTTTTCCCGGTAATCCGTATTTGCG (site CAAGCAGCTGG)”, for which the “recombinant UMI read abundance (log10)” value amounted to 0.
On to “CAAGCAGCATGGACCGGTTTTCCCGGTAATCCGTATTTGCG (site CAAGCAGCTTG)”, for which the “recombinant UMI read abundance (log10)” value is 1.68.
With “CAAGCAGCATGGACCGGTTTTCCCGGTAATCCGTATTTGCT (site AAAGCAGCTAG)”, the “recombinant UMI read abundance (log10)” value turned out to be 0.
Take “CAAGCAGCATGGACCGGTTTTCCCGGTAATCCGTATTTGCT (site CAAACAGCTAG)”: the “recombinant UMI read abundance (log10)” value was found to be 0.972.
Regarding “CAAGCAGCATGGACCGGTTTTCCCGGTAATCCGTATTTGCT (site CAACCAGCTAG)”, the “recombinant UMI read abundance (log10)” value was 0.
With “CAAGCAGCATGGACCGGTTTTCCCGGTAATCCGTATTTGCT (site CAAGAAGCTAG)” the figure was 0.892; with “CAAGCAGCATGGACCGGTTTTCCCGGTAATCCGTATTTGCT (site CAAGCAACTAG)”, 1.47.
“CAAGCAGCATGGACCGGTTTTCCCGGTAATCCGTATTTGCT (site CAAGCACCTAG)”: the “recombinant UMI read abundance (log10)” value is 0.
For “CAAGCAGCATGGACCGGTTTTCCCGGTAATCCGTATTTGCT (site CAAGCAGCTAA)”, the “recombinant UMI read abundance (log10)” value is 0.285.
As to “CAAGCAGCATGGACCGGTTTTCCCGGTAATCCGTATTTGCT (site CAAGCAGCTAC)”, the “recombinant UMI read abundance (log10)” value was 0.0274.
As to “CAAGCAGCATGGACCGGTTTTCCCGGTAATCCGTATTTGCT (site CAAGCAGCTAG)”, the “recombinant UMI read abundance (log10)” value came out at 1.84.
As for “CAAGCAGCATGGACCGGTTTTCCCGGTAATCCGTATTTGCT (site CAAGCAGCTAT)”, the “recombinant UMI read abundance (log10)” value was determined as 2.19.
For “CAAGCAGCATGGACCGGTTTTCCCGGTAATCCGTATTTGCT (site CAAGCAGCTCG)” the value was 0.839; for “CAAGCAGCATGGACCGGTTTTCCCGGTAATCCGTATTTGCT (site CAAGCAGCTGG)”, 1.4.
For “CAAGCAGCATGGACCGGTTTTCCCGGTAATCCGTATTTGCT (site CAAGCAGCTTG)” the value was 1.3.
With “CAAGCAGCATGGACCGGTTTTCCCGGTAATCCGTATTTGCT (site CAAGCATCTAG)” the figure was 0.937; with “CAAGCAGCATGGACCGGTTTTCCCGGTAATCCGTATTTGCT (site CAAGCCGCTAG)”, 0.0579.
“CAAGCAGCATGGACCGGTTTTCCCGGTAATCCGTATTTGCT (site CAAGCGGCTAG)”: the “recombinant UMI read abundance (log10)” value is 0.638.
